Measured values: patent US20030100769A1, “Cyclic amidine compounds” (priority 2000, published 2003)
Read-outs that look alike come from different tables or passages of the source.

Experiments:
[1] = biological target: T1, α4β2 subtype of nicotinic acetylcholine receptors (Rattus norvegicus, UniProt P09483+P12390); test: Binding assay at α4β2 subtype of nicotinic acetylcholine receptors ([3H]-cytisine, rat brain membrane)
T1 construct: examined using rat brain membrane obtained from whole homogenized brain; from tissue; host or cells: rat whole brain membranes (Fischer-344 male rats)
T1 sequence (P09483 31-630): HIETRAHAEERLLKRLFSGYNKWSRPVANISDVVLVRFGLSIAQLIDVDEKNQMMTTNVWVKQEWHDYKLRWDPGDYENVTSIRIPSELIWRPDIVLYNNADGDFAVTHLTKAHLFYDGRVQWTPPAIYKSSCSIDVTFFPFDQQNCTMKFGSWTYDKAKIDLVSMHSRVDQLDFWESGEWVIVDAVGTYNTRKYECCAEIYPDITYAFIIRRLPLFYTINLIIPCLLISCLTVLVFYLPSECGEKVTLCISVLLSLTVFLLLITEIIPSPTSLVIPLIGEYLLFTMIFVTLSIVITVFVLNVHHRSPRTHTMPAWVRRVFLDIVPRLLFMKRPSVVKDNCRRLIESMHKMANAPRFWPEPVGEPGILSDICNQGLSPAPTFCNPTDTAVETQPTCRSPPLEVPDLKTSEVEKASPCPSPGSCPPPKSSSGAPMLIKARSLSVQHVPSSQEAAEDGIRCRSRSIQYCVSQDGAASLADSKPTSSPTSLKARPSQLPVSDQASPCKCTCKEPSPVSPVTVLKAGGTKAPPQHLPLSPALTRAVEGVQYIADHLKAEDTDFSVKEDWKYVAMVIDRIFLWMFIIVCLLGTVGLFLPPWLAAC
T1 sequence (P12390 25-500): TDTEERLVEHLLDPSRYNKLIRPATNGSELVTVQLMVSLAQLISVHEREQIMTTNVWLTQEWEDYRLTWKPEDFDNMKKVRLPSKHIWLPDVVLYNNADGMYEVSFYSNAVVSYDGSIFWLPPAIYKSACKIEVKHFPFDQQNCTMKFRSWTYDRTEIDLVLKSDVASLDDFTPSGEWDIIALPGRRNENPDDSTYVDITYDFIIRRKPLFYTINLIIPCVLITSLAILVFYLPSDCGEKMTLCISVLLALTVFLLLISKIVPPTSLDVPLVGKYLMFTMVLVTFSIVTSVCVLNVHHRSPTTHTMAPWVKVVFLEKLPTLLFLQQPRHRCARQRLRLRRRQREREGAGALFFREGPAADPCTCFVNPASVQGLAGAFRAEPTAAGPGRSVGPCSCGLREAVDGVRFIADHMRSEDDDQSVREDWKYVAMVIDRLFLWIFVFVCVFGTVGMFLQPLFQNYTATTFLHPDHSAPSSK
Text: (§1) The methods for evaluating the binding capabilities of the compounds at nicotinic acetylcholine receptors are different by subtypes of receptors. The binding capabilities of the compounds at α4β2 nicotinic acetylcholine receptors are examined using rat brain membrane obtained from whole homogenized brain, and determining the inhibiting rate of the compounds against [^3H]-cytisine binding to said brain membrane. Furthermore, the binding capabilities of the compounds at α1β1γδ nicotinic acetylcholine receptors are examined using homogenized rat muscle, and determining the inhibiting rate of the compounds against [^3H]-α-bungarotoxin binding to said muscle homogenate.
Binding Assays at α4β2 Subtype of Nicotinic Acetylcholine Receptors
(1) Preparation of Rat Brain Membrane Containing α4β2 Subtype of Nicotinic Acetylcholine Receptors
Rats were housed in the breeding cage controlled of the room temperature at 23±1° C., and the humidity of 55±5% for 1 to 4 weeks. Rats (3 to 4 rats per a cage) were housed with lights on for 12 hours daily (from 7:00 to 19:00), and allowed free access to food and water.
Preparation of rat brain membrane containing α4β2 subtype of nicotinic acetylcholine receptors was performed as follow. That is, rat brains were isolated just after sacrificed by decapitation, washed with ice-cooled saline solution and then frozen at −80° C. with liquid nitrogen and stored till using. After thawing the frozen brain, the brain was homogenized in 10 volumes of ice-cooled buffer solution (50 mM of Tris-HCl, 120 mM of NaCl, 5 mM of KCl, 1 mM of MgCl2, 2 mM of CaCl2; pH 7.4; 4° C.) using homogenizer (HG30, Hitachi Kohki Ltd.) for 30 seconds, and the homogenate were centrifuged under 1,000×G for 10 minutes at 4° C. The resulting supernatant was separated and the pellet was homogenized again with half volume of aforementioned prior buffer solution and centrifuged under the same conditions. Combined supernatant was further centrifuged under 40,000×G for 20 minutes at 4° C. The pellet was suspended in buffer solution and used for binding assays at receptors.
(2) Experiments of α4β2 Subtype of Nicotinic Acetylcholine Receptors Binding
Suspensions of membrane pellets containing 400-600 μg of protein were added to test tubes containing test compounds and [^3H]-cytisine (2 nM) in a final volume of 200 μl and incubated for 75 minutes in ice-cooled bath. The samples were isolated by vacuum filtration onto Whatman GF/B filters, which were prerinsed with 0.5% polyethylenimine just prior to sample filtration, using Brandel multi manifold cell harvester. The filters were rapidly washed with buffer solution (3×1 ml). The filters were counted in 3 ml of clearsol I (Nacalai Tesque Inc.).
The analyses of the experimental results were conducted by using the Accufit Competition Program (Beckman Ltd.).

[2] = biological target: α1β1γδ subtype of nicotinic acetylcholine receptors (Rattus norvegicus, UniProt P18916+P25108+P25109+P25110); test: biochemical; type: binding; details: for remaining activity at 100 µM: read-out: control % of [3H]-α-Bgt binding at 100 μM of test compound; for remaining activity at 1000 µM: read-out: control % of [3H]-α-Bgt binding at 1,000 μM of test compound
Chain of α1β1γδ subtype of nicotinic acetylcholine receptors (P25109 24-501): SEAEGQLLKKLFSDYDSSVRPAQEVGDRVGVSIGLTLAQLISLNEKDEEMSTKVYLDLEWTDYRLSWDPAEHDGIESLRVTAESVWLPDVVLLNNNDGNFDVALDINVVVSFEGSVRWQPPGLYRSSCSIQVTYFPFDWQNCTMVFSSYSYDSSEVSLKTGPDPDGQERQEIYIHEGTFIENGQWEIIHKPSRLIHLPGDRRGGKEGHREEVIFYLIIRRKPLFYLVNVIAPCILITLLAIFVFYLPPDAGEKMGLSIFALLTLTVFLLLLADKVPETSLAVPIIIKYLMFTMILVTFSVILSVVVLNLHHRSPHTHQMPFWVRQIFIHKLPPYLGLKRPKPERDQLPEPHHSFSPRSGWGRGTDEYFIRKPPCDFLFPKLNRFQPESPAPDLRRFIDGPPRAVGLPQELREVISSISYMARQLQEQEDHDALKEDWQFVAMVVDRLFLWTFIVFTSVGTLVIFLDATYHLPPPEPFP
Chain of α1β1γδ subtype of nicotinic acetylcholine receptors (P25110 22-517): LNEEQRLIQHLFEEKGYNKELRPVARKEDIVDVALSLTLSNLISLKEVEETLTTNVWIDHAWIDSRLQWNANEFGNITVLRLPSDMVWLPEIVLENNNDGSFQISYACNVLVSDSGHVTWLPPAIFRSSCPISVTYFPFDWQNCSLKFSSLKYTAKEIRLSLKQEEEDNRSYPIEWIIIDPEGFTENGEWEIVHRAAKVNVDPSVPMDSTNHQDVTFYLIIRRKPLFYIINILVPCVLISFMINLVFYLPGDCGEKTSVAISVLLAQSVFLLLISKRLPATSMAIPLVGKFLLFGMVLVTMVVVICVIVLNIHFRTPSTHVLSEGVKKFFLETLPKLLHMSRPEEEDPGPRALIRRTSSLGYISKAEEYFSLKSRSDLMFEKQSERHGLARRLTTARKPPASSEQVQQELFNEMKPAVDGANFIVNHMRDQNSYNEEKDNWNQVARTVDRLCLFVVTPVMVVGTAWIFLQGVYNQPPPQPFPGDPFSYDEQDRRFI
Chain of α1β1γδ subtype of nicotinic acetylcholine receptors (P25108 21-457): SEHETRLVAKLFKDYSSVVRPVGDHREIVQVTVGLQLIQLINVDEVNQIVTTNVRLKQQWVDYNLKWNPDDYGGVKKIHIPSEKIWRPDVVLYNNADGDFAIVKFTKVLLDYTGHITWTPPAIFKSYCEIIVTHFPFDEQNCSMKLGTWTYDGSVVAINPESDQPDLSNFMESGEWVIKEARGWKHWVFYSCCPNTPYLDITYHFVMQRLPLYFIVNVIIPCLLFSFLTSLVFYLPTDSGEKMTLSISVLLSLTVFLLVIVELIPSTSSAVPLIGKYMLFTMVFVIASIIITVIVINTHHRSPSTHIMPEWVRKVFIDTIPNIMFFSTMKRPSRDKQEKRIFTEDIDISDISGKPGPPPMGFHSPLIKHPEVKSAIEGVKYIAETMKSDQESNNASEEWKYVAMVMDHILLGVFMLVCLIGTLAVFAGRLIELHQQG
Text: as §1
Binding Assays at α1β1γδ Subtype of Nicotinic Acetylcholine Receptors
The affinity of the compounds of the present invention to α1β1γδ subtype of nicotinic acetylcholine receptors was measured by the following method, which was modified method described by Garcha H. S., Thomas P., Spivak C.
(1) Preparation of Rat Skeletal Muscles Containing α1β1γδ Subtype of Nicotinic Acetylcholine Receptors
The substantially same animals described in the Biological Experiment 1 were used.
The isolation of α1β1γδ subtype of nicotinic acetylcholine receptors was performed as follow. That is, rat posterior skeletal muscles were isolated just after sacrificed by decapitation, washed with ice-cooled saline solution and then frozen at −80° C. with liquid nitrogen and stored till using. After thawing the frozen muscles, tissue was homogenized ([…]) with buffer solution [2.5 mM of sodium phosphate buffer (pH:7.2), 90 mM of NaCl, 2 mM of KCl, 1 mM of EDTA, 2 mM of benzamidine, 0.1 mM of benzethonium chloride, 0.1 mM of PMSF, 0.01% of sodium azide] in Waring blender (Waring blender 34BL97; WARING PRODUCTS DIVISION DYNAMICS CORPORATION OF AMERICA) for 60 seconds. The homogenate were centrifuged under 20,000×G for 60 minutes at 4° C. The supernatant was separated and the resulting pellet was added to the same buffer (1.5 ml/g wet weight), and homogenized under the same conditions. Triton X100 (2% w/v) was added and the mixture was stirred for 3 hours at 4° C. The centrifugation at 100,000×G for 60 minutes at 4° C. yielded the rat muscle extract as supernatant. This was stored at 4° C. for up to 4 weeks, and used for binding assays at receptors.
(2) Experiments of α1β1γδ Subtype of Nicotinic Acetylcholine Receptors Binding
Receptors binding experiments were performed as follow. That is, the extract of rat muscle containing 600-900 μg of protein was added to test tubes containing test compounds and incubated for 15 minutes at 37° C. Then, to this mixture was added 1 nM of [^3H]-α-bungarotoxin (α-Bgt) and further incubated for 2 hours. The samples were isolated by vacuum filtration onto Whatman GF/B filters, which were prerinsed with 0.5% polyethylenimine just prior to sample filtration, using Brandel multi manifold cell harvester. The filters were rapidly rinsed with washing solution (10 mM of KH2PO4, 150 mM of NaCl, pH 7.2, room temperature) (5×1 ml). The filters were counted in 3 ml of clearsol I (Nacalai Tesque Inc.). The determination of nonspecific binding was incubated in the presence of 1 μM α-Bgt. […] In the receptor binding experiments, said buffer solution was added for adjusting the final concentration of BSA to be 0.05%.
The analyses of the experimental results were conducted by the same way as described in the Biological Experiment 1.

[3] = rat brain membrane, [3H]-cytisine 2 nM, read-out: Affinities for receptors Ki α4β2

Compound	Ki [1]	remaining activity at 100 µM [2]	remaining activity at 1000 µM [2]	Ki [2]	Ki [1, 3]
CN1CCCN=C1c1ccc(Cl)nc1 [Compound 4, 2-(6-chloro-3-pyridyl)-1-methyl-1,4,5,6-tetrahydropyrimidine]	0.067 µM	46%	16%		
Clc1ccc(CC2=NCCN2)cn1 [Compound 7, 2-(6-chloro-3-pyridyl)methyl-2-imidazoline]	0.086 µM	80%	51%		
Clc1ccc(CC2=NCCCN2)cn1 [Compound 8, 2-(6-chloro-3-pyridyl)methyl-1,4,5,6-tetrahydropyrimidine]	0.029 µM			395 µM	
CN1CCN=C1Cc1ccc(Cl)nc1 [Compound 9, 2-(6-chloro-3-pyridyl)methyl-1-methyl-2-imidazoline]	0.0077 µM	43%	16%		
CN1CCCN=C1Cc1ccc(Cl)nc1 [Compound 10, 2-(6-chloro-3-pyridyl)methyl-1-methyl-1,4,5,6-tetrahydropyrimidine]	0.001 µM	40%	17%		
CC1=NCCN1Cc1ccc(Cl)nc1 [Compound 11, 1-(6-chloro-3-pyridyl)methyl-2-methyl-2-imidazoline]	0.115 µM	74%	53%		
CC1(C)CN(Cc2ccc(Cl)nc2)C=N1 [Compound 12, 1-(6-chloro-3-pyridyl)methyl-4,4-dimethyl-2-imidazoline]	0.268 µM	79%	42%		
C1CN=C(CC2CCOC2)NC1 (stereo not drawn) [Compound 15, 2-(tetrahydrofuran-3-yl)methyl-1,4,5,6-tetrahydropyrimidine]					0.95 µM
Brc1cncc(CC2=NCCCN2)c1 [Compound 16, 2-(5-bromo-3-pyridyl)methyl-1,4,5,6-tetrahydropyrimidine]	0.392 µM	63%	30%		
c1cncc(CC2=NCCCN2)c1 [Compound 18, 2-(3-pyridyl)methyl-1,4,5,6-tetrahydropyrimidine]	0.086 µM	62%	18%		
c1cncc(CC2=NCCN2)c1 [Compound 19, 2-(3-pyridyl)methyl-2-imidazoline]		69%	29%		
c1ccc2ncc(C3=NCCCN3)cc2c1 [Compound 25, 2-(3-quinolyl)-1,4,5,6-tetrahydropyrimidine]		41%	7%		0.338 µM
CC1=NCC(c2cccnc2)N1 (stereo not drawn) [Compound 32, 2-methyl-5-(3-pyridyl)-2-imidazoline]		69%	35%		0.58 µM
C1=NCC(c2cccnc2)N1 (stereo not drawn) [Compound 33, 5-(3-pyridyl)-2-imidazoline]	0.365 µM				
Clc1cc(CC2=NCCCN2)cnc1Cl [Compound 36, 2-(5,6-dichloro-3-pyridyl)methyl-1,4,5,6-tetrahydropyrimidine]	0.124 µM	81%	34%		
Cc1ccc(CC2=NCCCN2)cn1 [Compound 43, 2-(6-methyl-3-pyridyl)methyl-1,4,5,6-tetrahydropyrimidine]	0.167 µM	71%	28%		
Fc1ccc(CC2=NCCCN2)cn1 [Compound 48, 2-(6-fluoro-3-pyridyl)methyl-1,4,5,6-tetrahydropyrimidine]	0.082 µM			257 µM	
Clc1cc(CC2=NCCN2)cnc1Cl [Compound 49, 2-(5,6-dichloro-3-pyridyl)methyl-2-imidazoline]				773 µM	0.211 µM
Clc1cc(CN2C=NCCC2)cnc1Cl [Compound 52, 1-(5,6-dichloro-3-pyridyl)methyl-1,4,5,6-tetrahydropyrimidine]	0.0012 µM			23 µM	
CN1CCN=C1Cc1cnc(Cl)c(Cl)c1 [Compound 53, 2-(5,6-dichloro-3-pyridyl)methyl-1-methyl-2-imidazoline]	0.01 µM			83 µM	
CC1CCNC(Cc2ccc(Cl)nc2)=N1 (stereo not drawn) [Compound 54, 2-(6-chloro-3-pyridyl)methyl-4-methyl-1,4,5,6-tetrahydropyrimidine]	0.108 µM			1740 µM	
Clc1ncc(CC2=NCCCN2)s1 [Compound 64, 2-(2-chloro-5-thiazolyl)methyl-1,4,5,6-tetrahydropyrimidine]	0.0081 µM			23 µM	
Clc1ncc(CC2=NCCN2)s1 [Compound 65, 2-(2-chloro-5-thiazolyl)methyl-2-imidazoline]	0.053 µM			524 µM	
c1ncc(CC2=NCCCN2)cn1 [Compound 66, 2-(5-pyrimidyl)methyl-1,4,5,6-tetrahydropyrimidine]	0.09 µM			841 µM	
Cc1cncc(CC2=NCCCN2)c1 [Compound 68, 2-(5-methyl-3-pyridyl)methyl-1,4,5,6-tetrahydropyrimidine]	0.203 µM			231 µM	
